Experimental data reported in patent publication US20120245137A1 (Zalicus Pharmaceuticals Ltd., priority 2009, published 2012).
pIC50: −log10 of the molar value.

What was measured:
Assay type in all cases: cell-based
[1] = molecular target: human α1G T-type channels (Homo sapiens, UniProt O43497); assay: T-type calcium channel block, whole cell patch clamp, α1G; settings: HEK cells stably expressing human α1G; mainly non-inactivated protocol; values above 10,000 nM represented as 10000
Method in brief: (§1)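 Using standard patch-clamp, T-type currents were recorded from stably transfected human α1G or α1H HEK 293 cells. Separate non-inactivating and inactivation voltage protocols distinguished resting from voltage-dependent block by locally applied compound in 0.1-0.01% DMSO.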

[2] = molecular target: human α1H T-type channels (Homo sapiens, UniProt O95180); assay: T-type calcium channel block, whole cell patch clamp, α1H; settings: HEK cells stably expressing human α1H; mainly non-inactivated protocol; values above 10,000 nM represented as 10000
Chain of human α1H T-type channels (O95180 whole entry): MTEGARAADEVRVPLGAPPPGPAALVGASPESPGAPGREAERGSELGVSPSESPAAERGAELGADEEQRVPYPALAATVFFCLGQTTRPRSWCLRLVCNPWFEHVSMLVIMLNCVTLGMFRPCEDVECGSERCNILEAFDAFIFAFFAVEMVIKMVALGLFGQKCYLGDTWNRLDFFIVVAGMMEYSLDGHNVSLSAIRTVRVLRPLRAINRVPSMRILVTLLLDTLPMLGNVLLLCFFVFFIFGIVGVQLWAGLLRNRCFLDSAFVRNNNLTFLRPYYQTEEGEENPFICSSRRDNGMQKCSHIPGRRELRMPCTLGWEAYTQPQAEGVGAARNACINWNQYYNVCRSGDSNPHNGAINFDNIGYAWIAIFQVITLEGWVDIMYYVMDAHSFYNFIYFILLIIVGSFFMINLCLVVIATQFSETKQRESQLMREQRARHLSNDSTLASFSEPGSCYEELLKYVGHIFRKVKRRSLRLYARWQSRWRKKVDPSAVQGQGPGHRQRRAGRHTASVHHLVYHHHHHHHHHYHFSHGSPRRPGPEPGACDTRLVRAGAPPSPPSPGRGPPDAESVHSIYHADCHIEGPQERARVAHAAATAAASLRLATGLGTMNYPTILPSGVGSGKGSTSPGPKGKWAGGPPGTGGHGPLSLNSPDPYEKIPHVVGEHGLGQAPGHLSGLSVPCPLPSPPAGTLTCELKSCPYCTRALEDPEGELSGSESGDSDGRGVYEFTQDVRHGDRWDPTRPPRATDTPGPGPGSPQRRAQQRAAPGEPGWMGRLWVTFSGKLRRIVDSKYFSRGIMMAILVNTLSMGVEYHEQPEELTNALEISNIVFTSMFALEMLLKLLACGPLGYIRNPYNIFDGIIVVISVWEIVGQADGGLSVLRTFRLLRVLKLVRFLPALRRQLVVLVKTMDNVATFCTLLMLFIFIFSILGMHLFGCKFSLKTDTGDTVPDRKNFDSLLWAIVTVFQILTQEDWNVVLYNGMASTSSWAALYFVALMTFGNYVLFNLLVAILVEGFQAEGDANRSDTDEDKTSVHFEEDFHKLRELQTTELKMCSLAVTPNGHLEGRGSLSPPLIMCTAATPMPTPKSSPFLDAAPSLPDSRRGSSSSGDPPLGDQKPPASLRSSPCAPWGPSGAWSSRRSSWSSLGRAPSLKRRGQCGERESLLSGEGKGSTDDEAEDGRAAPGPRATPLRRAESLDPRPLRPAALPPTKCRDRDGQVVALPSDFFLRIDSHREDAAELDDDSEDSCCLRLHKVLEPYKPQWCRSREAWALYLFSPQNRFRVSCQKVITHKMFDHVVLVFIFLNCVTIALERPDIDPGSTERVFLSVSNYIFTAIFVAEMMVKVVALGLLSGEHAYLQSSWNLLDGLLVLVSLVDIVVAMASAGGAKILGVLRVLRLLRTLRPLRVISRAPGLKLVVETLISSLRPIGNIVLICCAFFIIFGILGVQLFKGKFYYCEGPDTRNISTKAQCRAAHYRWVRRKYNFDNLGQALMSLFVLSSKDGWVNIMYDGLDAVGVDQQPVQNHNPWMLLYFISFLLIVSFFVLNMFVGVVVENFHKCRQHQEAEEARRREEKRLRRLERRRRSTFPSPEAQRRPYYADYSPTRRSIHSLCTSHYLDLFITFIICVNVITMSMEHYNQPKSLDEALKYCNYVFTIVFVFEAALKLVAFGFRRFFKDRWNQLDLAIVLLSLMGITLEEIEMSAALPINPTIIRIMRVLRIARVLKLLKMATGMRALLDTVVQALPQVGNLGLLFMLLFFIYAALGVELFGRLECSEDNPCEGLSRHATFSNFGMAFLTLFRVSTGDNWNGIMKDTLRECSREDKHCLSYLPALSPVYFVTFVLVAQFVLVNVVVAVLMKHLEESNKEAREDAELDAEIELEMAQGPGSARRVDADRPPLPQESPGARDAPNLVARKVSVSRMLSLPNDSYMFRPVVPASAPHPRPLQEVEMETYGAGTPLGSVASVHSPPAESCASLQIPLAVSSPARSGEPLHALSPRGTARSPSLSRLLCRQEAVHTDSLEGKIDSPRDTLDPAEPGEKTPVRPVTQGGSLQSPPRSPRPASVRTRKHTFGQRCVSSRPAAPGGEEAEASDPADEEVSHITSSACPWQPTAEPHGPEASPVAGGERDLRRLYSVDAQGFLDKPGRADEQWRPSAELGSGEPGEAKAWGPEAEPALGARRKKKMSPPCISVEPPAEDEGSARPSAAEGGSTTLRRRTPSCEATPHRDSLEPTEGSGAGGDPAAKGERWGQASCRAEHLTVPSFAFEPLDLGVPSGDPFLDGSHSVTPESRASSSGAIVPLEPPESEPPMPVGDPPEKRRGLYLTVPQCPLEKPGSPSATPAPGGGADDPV
Method in brief: as §1

[3] = molecular target: N-type calcium channel subunits (α1B, α2δ, and β3a) (Homo sapiens, UniProt Q00975); assay: Block of Cav2.2 channel, whole cell voltage clamp, manual and PatchXpress; settings: Table 5; table follows Assay Example 3 (whole cell voltage clamp / PatchXpress); assay not given
Method in brief: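 Percent block taken as current amplitude ratio with versus without compound, applied in rising doses; IC50 fitted where one cell received multiple doses. Protocol: 50 ms pulses to +20 mV at 0.067 Hz from […] or −90 mV holding; P/n leak subtraction, no junction-potential correction; manual and PatchXpress recordings.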

Chain of human α1G T-type channels (O43497 whole entry): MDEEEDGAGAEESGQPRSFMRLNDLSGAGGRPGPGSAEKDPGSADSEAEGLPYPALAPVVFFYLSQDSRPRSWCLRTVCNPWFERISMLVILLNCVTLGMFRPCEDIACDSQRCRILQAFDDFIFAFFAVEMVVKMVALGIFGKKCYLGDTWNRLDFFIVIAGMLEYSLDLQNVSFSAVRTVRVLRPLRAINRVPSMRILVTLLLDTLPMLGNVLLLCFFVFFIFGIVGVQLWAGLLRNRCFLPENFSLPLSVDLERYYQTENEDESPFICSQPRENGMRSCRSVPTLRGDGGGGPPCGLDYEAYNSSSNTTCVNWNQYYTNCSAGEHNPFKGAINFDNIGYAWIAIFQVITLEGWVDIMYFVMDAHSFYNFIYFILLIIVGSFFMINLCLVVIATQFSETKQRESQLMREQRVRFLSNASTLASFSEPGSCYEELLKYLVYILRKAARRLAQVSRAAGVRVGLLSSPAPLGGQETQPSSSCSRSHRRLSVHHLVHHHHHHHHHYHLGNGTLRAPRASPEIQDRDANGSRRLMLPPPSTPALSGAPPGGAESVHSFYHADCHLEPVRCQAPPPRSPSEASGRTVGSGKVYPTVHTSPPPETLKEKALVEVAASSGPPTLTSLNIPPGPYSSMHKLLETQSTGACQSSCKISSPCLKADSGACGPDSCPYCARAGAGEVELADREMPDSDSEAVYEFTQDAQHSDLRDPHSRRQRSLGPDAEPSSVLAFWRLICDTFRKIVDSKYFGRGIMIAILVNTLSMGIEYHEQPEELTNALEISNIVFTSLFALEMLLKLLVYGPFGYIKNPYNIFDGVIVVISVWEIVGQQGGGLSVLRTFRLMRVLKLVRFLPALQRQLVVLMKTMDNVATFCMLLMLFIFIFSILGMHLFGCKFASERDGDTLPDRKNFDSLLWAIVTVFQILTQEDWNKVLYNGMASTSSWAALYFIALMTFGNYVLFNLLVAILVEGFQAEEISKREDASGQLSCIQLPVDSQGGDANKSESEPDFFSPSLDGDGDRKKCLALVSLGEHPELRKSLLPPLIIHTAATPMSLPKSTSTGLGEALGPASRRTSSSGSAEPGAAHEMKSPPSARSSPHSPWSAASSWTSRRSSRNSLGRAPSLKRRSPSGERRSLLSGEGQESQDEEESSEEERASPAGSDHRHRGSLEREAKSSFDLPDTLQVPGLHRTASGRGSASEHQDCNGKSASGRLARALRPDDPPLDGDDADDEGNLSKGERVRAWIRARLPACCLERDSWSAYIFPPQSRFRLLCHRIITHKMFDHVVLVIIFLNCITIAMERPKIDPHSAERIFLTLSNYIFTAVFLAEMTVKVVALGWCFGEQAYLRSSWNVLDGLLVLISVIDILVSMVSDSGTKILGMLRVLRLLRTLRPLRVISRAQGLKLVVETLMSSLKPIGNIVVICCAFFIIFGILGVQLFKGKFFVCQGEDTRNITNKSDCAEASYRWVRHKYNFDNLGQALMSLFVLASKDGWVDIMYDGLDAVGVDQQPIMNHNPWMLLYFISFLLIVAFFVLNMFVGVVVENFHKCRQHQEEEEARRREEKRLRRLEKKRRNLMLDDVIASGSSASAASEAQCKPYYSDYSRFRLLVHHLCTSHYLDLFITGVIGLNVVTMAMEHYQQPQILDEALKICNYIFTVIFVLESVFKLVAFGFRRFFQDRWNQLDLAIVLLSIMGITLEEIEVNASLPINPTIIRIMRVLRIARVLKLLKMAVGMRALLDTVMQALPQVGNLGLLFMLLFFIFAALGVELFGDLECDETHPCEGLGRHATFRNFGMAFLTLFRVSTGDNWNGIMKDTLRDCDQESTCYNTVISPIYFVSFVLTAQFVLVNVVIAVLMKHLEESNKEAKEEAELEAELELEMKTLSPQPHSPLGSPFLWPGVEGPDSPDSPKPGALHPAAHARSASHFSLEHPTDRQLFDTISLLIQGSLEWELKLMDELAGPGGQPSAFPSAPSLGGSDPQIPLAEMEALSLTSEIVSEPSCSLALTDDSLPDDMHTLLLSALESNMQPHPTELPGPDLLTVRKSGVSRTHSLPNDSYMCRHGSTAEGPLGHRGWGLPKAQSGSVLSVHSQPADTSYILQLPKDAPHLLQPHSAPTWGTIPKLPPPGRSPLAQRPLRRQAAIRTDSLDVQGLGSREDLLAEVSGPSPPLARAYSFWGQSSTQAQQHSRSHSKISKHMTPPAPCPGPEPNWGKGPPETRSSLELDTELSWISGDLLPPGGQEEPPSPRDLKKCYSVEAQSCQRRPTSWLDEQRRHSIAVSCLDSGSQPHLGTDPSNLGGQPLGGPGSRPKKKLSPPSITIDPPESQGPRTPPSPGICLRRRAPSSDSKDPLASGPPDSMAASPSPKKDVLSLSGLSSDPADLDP

SMILES	pIC50 [1]	pIC50 [2]	IC50 [3] [nM]
CC1(NC(=O)c2ccc(F)c(Cl)c2)CCC(S(=O)(=O)c2cccc(C(F)(F)F)c2)CC1 (stereo not drawn) [Compound 310, 3-chloro-4-fluoro-N-(1-methyl-4-(3-(trifluoromethyl)phenylsulfonyl)cyclohexyl) benzamide]	5.20	5.24	1160
CC1(NC(=O)c2ccc(C(F)(F)F)cc2S(C)(=O)=O)CCC(S(=O)(=O)c2cccc(C(F)(F)F)c2)CC1 (stereo not drawn) [Compound 311, N-(1-methyl-4-(3-(trifluoromethyl)phenylsulfonyl)cyclohexyl)-2-(methylsulfonyl)-4-(trifluoromethyl)benzamide]	5.29	5.07	650
CC1(NC(=O)c2ccc(C(F)(F)F)cn2)CCC(S(=O)(=O)c2cccc(C(F)(F)F)c2)CC1 (stereo not drawn) [Compound 312, N-(1-methyl-4-(3-(trifluoromethyl)phenylsulfonyl)cyclohexyl)-5-(trifluoromethyl)picolinamide]	5.53	5.71	1020
COc1cc(C(=O)NC2(C)CCC(S(=O)(=O)c3cccc(C(F)(F)F)c3)CC2)cc(Cl)n1 (stereo not drawn) [Compound 313, 2-chloro-6-methoxy-N-(1-methyl-4-(3-(trifluoromethyl)phenylsulfonyl)cyclohexyl) isonicotinamide]	< 5.00	< 5.00	1980
CC1(NC(=O)c2ccc(C(F)(F)F)nc2S(C)(=O)=O)CCC(S(=O)(=O)c2cccc(C(F)(F)F)c2)CC1 (stereo not drawn) [Compound 316, N-(1-methyl-4-(3-(trifluoromethyl)phenylsulfonyl)cyclohexyl)-2-(methylsulfonyl)-6-(trifluoromethyl)nicotinamide]	5.40	5.54	3120
CC1(NC(=O)c2ncc(C(F)(F)F)cc2S(C)(=O)=O)CCC(S(=O)(=O)c2cccc(C(F)(F)F)c2)CC1 (stereo not drawn) [Compound 317, N-(1-methyl-4-(3-(trifluoromethyl)phenylsulfonyl)cyclohexyl)-3-(methylsulfonyl)-5-(trifluoromethyl)picolinamide]	5.94	6.07	2690
O=C(N[C@H]1CC[C@@H](S(=O)(=O)c2cc(F)cc(C(F)(F)F)c2)CC1)c1ccc(F)c(C(F)(F)F)c1 [Compound 319, 4-fluoro-N-((1S,4S)-4-(3-fluoro-5-(trifluoromethyl)phenylsulfonyl)cyclohexyl)-3-(trifluoromethyl)benzamide]	5.32	5.46	260
O=C(N[C@H]1CC[C@@H](S(=O)(=O)c2cc(F)cc(C(F)(F)F)c2)CC1)c1ccc(F)c(Cl)c1 [Compound 320, 3-chloro-4-fluoro-N-((1S,4S)-4-(3-fluoro-5-(trifluoromethyl)phenylsulfonyl)cyclohexyl) benzamide]	6.54	6.72	600
O=C(N[C@H]1CC[C@@H](S(=O)(=O)c2cc(F)cc(C(F)(F)F)c2)CC1)c1ccc(Cl)c(OC(F)(F)F)c1 [Compound 322, 4-chloro-N-((1S,4S)-4-(3-fluoro-5-(trifluoromethyl)phenylsulfonyl)cyclohexyl)-3-(trifluoromethoxy)benzamide]	5.49	6.20	500
O=C(N[C@H]1CC[C@@H](S(=O)(=O)c2cc(F)cc(C(F)(F)F)c2)CC1)c1ccnn1CC(F)(F)F [Compound 323, N-((1S,4S)-4-(3-fluoro-5-(trifluoromethyl)phenylsulfonyl)cyclohexyl)-1-(2,2,2-trifluoroethyl)-1Hpyrazole-5-carboxamide]	5.87	6.14	2410
O=C(N[C@H]1CC[C@@](F)(S(=O)(=O)c2cc(F)cc(C(F)(F)F)c2)CC1)c1cc(C(F)(F)F)n[nH]1 [Compound 324, N-((1S,4S)-4-fluoro-4-(3-fluoro-5-(trifluoromethyl)phenylsulfonyl)cyclohexyl)-3-(trifluoromethyl)-1H-pyrazole-5-carboxamide]	5.50	5.91	1060
O=C(N[C@H]1CC[C@@](F)(S(=O)(=O)c2cc(F)cc(C(F)(F)F)c2)CC1)c1ccc(F)c(C(F)(F)F)c1 [Compound 325, 4-fluoro-N-((1S,4S)-4-fluoro-4-(3-fluoro-5-(trifluoromethyl)phenylsulfonyl)cyclohexyl)-3-(trifluoromethyl)benzamide]	5.62	5.88	320
Cn1nc(C(F)(F)F)cc1C(=O)N[C@H]1CC[C@@](F)(S(=O)(=O)c2cc(F)cc(C(F)(F)F)c2)CC1 [Compound 327, N-((1S,4S)-4-fluoro-4-(3-fluoro-5-(trifluoromethyl)phenylsulfonyl)cyclohexyl)-1-methyl-3-(trifluoromethyl)-1Hpyrazole-5-carboxamide]	5.55	6.12	630
O=C(N[C@H]1CC[C@@](F)(S(=O)(=O)c2cc(F)cc(C(F)(F)F)c2)CC1)c1cc(C(F)(F)F)ccn1 [Compound 328, N-((1S,4S)-4-fluoro-4-(3-fluoro-5-(trifluoromethyl)phenylsulfonyl)cyclohexyl)-4-(trifluoromethyl)picolinamide]	< 5.00	5.61	710
O=C(N[C@H]1CC[C@@](F)(S(=O)(=O)c2cc(F)cc(C(F)(F)F)c2)CC1)c1ccc(F)c(Cl)c1 [Compound 329, 3-chloro-4-fluoro-N-((1S,4S)-4-fluoro-4-(3-fluoro-5-(trifluoromethyl)phenylsulfonyl)cyclohexyl) benzamide]	< 5.00	< 5.00	350
CS(=O)(=O)c1cc(C(F)(F)F)ccc1C(=O)N[C@H]1CC[C@@](F)(S(=O)(=O)c2cc(F)cc(C(F)(F)F)c2)CC1 [Compound 330, N-((1S,4S)-4-fluoro-4-(3-fluoro-5-(trifluoromethyl)phenylsulfonyl)cyclohexyl)-2-(methylsulfonyl)-4-(trifluoromethyl)benzamide]	5.07	6.03	1020
CS(=O)(=O)c1cc(C(F)(F)F)cnc1C(=O)N[C@H]1CC[C@@](F)(S(=O)(=O)c2cc(F)cc(C(F)(F)F)c2)CC1 [Compound 331, N-((1S,4S)-4-fluoro-4-(3-fluoro-5-(trifluoromethyl)phenylsulfonyl)cyclohexyl)-3-(methylsulfonyl)-5-(trifluoromethyl)picolinamide]	5.58	5.82	1290
O=C(N[C@H]1CC[C@@](F)(S(=O)(=O)c2cc(F)cc(C(F)(F)F)c2)CC1)c1cn2cc(C(F)(F)F)ccc2n1 [Compound 332, N-((1S,4S)-4-fluoro-4-(3-fluoro-5-(trifluoromethyl)phenylsulfonyl)cyclohexyl)-6-(trifluoromethyl)imidazo[l,2-a]pyridine-2-carboxamide]	5.81	6.11	620
O=C1c2cc(C(F)(F)F)nn2CCN1[C@H]1CC[C@@](F)(S(=O)(=O)c2cc(F)cc(C(F)(F)F)c2)CC1 [Compound 333, 5-((1S,4S)-4-fluoro-4-(3-fluoro-5-(trifluoromethyl)phenylsulfonyl)cyclohexyl)-2-(trifluoromethyl)-6,7-dihydropyrazolo[l,5-a]pyrazin-4(5H)-one]	5.74	6.02	180
CN(C(=O)c1ccc(F)c(C(F)(F)F)c1)[C@H]1CC[C@@](F)(S(=O)(=O)c2cc(F)cc(C(F)(F)F)c2)CC1 [Compound 334, 4-fluoro-N-((1S,4S)-4-fluoro-4-(3-fluoro-5-(trifluoromethyl)phenylsulfonyl)cyclohexyl)-N-methyl-3-(trifluorornethyl) benzamide]	< 5.00	5.62	360
CN(C(=O)c1ccc(F)c(Cl)c1)[C@H]1CC[C@@](F)(S(=O)(=O)c2cc(F)cc(C(F)(F)F)c2)CC1 [Compound 335, 3-chloro-4-fluoro-N-((1S,4S)-4-fluoro-4-(3-fluoro-5-(trifluoromethyl)phenylsulfonyl)cyclohexyl)-N-methylbenzamide]	< 5.00	5.33	520
CN(C(=O)c1ccc(C(F)(F)F)cc1S(C)(=O)=O)[C@H]1CC[C@@](F)(S(=O)(=O)c2cc(F)cc(C(F)(F)F)c2)CC1 [Compound 336, N-((1S,4S)-4-fluoro-4-(3-fluoro-5-(trifluoromethyl)phenylsulfonyl)cyclohexyl)-N-methyl-2-(methylsulfonyl)-4-(trifluoromethyl)benzamide]	6.16	5.87	1060
CN(C(=O)c1ncc(C(F)(F)F)cc1S(C)(=O)=O)[C@H]1CC[C@@](F)(S(=O)(=O)c2cc(F)cc(C(F)(F)F)c2)CC1 [Compound 337, N-((1S,4S)-4-fluoro-4-(3-fluoro-5-(trifluoromethyl)phenylsulfonyl)cyclohexyl)-N-methyl-3-(methylsulfonyl)-5-(trifluoromethyl)picolinarnide]	< 5.00	5.06	910
CN(C(=O)c1cn2cc(C(F)(F)F)ccc2n1)[C@H]1CC[C@@](F)(S(=O)(=O)c2cc(F)cc(C(F)(F)F)c2)CC1 [Compound 338, N-((1S,4S)-4-fluoro-4-(3-fluoro-5-(trifluoromethyl)phenylsulfonyl)cyclohexyl)-N-methyl-6-(trifluoromethyl) imidazo[1,2-a]pyridine-2-carboxamide]	< 5.00	5.17	770
